Experimental data taken from US20260115202A1, “TOPICAL COMPOSITIONS COMPRISING AN ESTETROL COMPONENT AND USE OF SAID COMPOSITIONS FOR WOUND HEALING” (NEURALIS SA, priority 2022, published 2026).

Tests used:
[1] = system: normal human epidermal keratinocytes (NHEKs); assay: Scratch wound assay, normal human epidermal keratinocytes; type: cell-based; settings: NHEK, 10^−7/10^−8 M range, 15% and 30% HKGS, 24 hours
Experimental: Primary human dermal fibroblasts (HDF) were isolated from abdominal skin or leg skin. Primary neonatal normal human epidermal keratinocytes (NHEK) were purchased (Lonza). Murine dermal fibroblasts (MDF), murine epidermal keratinocytes (MEK), murine peritoneal macrophages and murine bone marrow were isolated from C57/B16 (wt). NDb (Lepr+/−) or Db (Lepr−/−) mice.
Neonatal HEK were cultured in EpiLife supplemented with […] human keratinocyte growth supplements (HKGS) and 1% penicillin/streptomycin. MEK were cultured in CnT basal medium supplemented with 1% penicillin/streptomycin and 1% amphotericin B.
Cells were seeded into 24 well plates and cultured to form a confluent monolayer, and then scratched with a 1 ml pipette tip. Wells were treated with E2, E4 and/or various estrogen receptor agonists and antagonists. […] A vehicle control containing the equivalent concentration of EtOH and/or DMSO was included, in addition to an untreated negative control. All treatments were diluted to working concentrations in media supplemented with 2% charcoal-stripped FBS. […] Scratch closure was determined from multiple independent measurements per well.
The effects of E2 and E4 on keratinocyte migration where evaluated using primary normal human epidermal keratinocytes (NHEKs).

THP1 cells = assay: THP1 macrophage polarisation, qPCR of M1/M2 markers; type: cell-based, human; settings: range of concentrations; for expression of Tnf-α (M1 marker): M1 polarised THP1 cells; for expression of CCL17 (M2 marker): M2 polarised THP1 cells
Experimental: THP1 cells were maintained in RPM1 growth medium supplemented with 10% heat-inactivated FBS and 1% penicillin/streptomycin. Cells were seeded into 12- or 6-well plates at 2×10^5 cells/ml and treated with phorbol 12-myristate 13-acetate (PMA) to induce differentiation to macrophages. Cells were cultured for 24 hours in complete growth medium without PMA, followed by a 6 hour serum starve prior to polarisation. Cells were polarised to M1 macrophages using 20 ng/ml IFN-γ and 10 pg/ml LPS (from E, coli) for 6 or 24 hours and collected for RNA isolation or flow cytometry. Following treatments, human and murine macrophages were collected in Trizol and RNA isolated using the Trizol plus RNA isolation kit (Invitrogen. Thermo Fisher) according to the manufacturer's instructions. RNA was reverse transcribed to cDNA using GoScript reverse transcriptase (Promega). Quantitative real-time PCR was carried out using 2×Takyon SYBR Green mastermix and a CFX Connect thermocycler. Primers for ERα and ERβ were used to explore changes in ER expression after treatment of MEK and MDF with E2 and E4. To investigate the effect of E2 and E4 on MEK differentiation and the expression of ECM proteins by MDF, primers for. Snail, keratin-1 and fibronectin, collagen I. MMP-2 and MMP-9 were used. Primers for INOS. IL-1B and Tnf-α or Ccl17 were used to assess M1/M2 polarisation status. Primers for GAPDH were used to normalise data. Relative gene expression was set to vehicle controls or M0 expression unless otherwise stated. The relative anti-inflammatory effects of both E2 and E4 were evaluated in vitro. First, the human monocyte THP1 cell line was used to screen several concentrations of E2 and E4. THP1 cells were differentiated to a macrophage phenotype by treatment with PMA, followed by polarisation to an M1 or M2 phenotype (FIG. 23). Successful polarisation was confirmed by profiling the expression of the M1 marker (TNF-α) and the M2 marker (CCL17). The effects of co-treatment with a range of E2 or E4 concentrations were evaluated.

[2] = system: wound expression of M1 (TNF-α and IL1-β) and M2 (Fizz1 and Ym1) markers; assay: In vivo LPS model: qPCR of M1 and M2 markers in wound tissue RNA; design: species or system mice; settings: versus LPS/PBO control
From the text: Female wild-type (C57BL/6J) 8 weeks old mice were split into six groups (6 animals per experimental group): • Double placebo control (no LPS, placebo treatment), • LPS control (LPS, placebo treatment), • LPS with topical EstroGel (estradiol gel, contains 0.06% 17β-estradiol as hemihydrate in a hydro-alcoholic gel), • LPS with topical AG24 (E4 at 0.5%), • LPS with topical AG25 (E4 at 0.22%), • LPS with topical AG26 (E4 at 0.06%). The day prior to wounding (day -1), all the animals were weighed and anaesthetised using oxygen and isoflurane (flow rate 1.25-2 L with 2-2.5% isoflurane depending on clinical signs). Animals were shaved and dorsal areas prepped. Wound positions (2 wounds) were marked on the dorsum of each animal. […] A thin layer of EstroGel, AG24, AG25, AG26 or placebo were then applied to the dorsum of each animal, measured as 60 μl total (30 μl/wound). […] For isolation of RNA and quantitative real time PCR murine macrophages were collected in Trizol and RNA was isolated using a Trizol plus RNA isolation kit (Invitrogen. Thermo Fisher) according to the manufacturer's instructions. […] Quantitative real-time PCR was carried out using 2×Takyon SYBR Green mastermix and a CFX Connect thermocycler. […]

[3] = system: LPS-induced delayed wound healing mice model; assay: In vivo LPS model, single or repeated administration: wound histology at day 3; settings: single administration
From the text: The in vivo LPS treatment protocol (delayed wound healing model) as presented in example 4 has been repeated with the following groups of animals: • Double placebo group (untreated control). • LPS control (LPS, placebo treatment). • LPS with topical EstroGel (estradiol gel, contains 0.06% 17β-estradiol as hemihydrate in a hydro-alcoholic gel), repeated administration for 4 days. • LPS with topical AG26 (E4 at 0.06%), single administration. • LPS with topical AG26 (E4 at 0.06%), repeated administration for 4 days. • LPS with topical AG28 (E4 at 0.06%), single administration. • LPS with topical AG28 (E4 at 0.06%), repeated administration for 4 days. On day 0 only (single administration), or on days −1, 0, 1 and 2 (repeated administration), topical EstroGel. AG26. AG28 or corresponding placebo was applied in a thin layer over the top of the wounds (60 μl total: 30 μl/wound) during observations. On day 3, mice were humanely culled via rising concentration of CO2 and cervical dislocation. Uteri as well as non-wounded and wound tissue samples were processed as described under example 4. […] Next, we evaluated wound closure from histological samples (FIG. 13). Histological sections were subjected to K14 immunohistochemistry to visualise the newly forming epidermis.

Row | Compound | scratch wound closure [1] | expression of Tnf-α (M1 marker) (THP1 cells) | expression of CCL17 (M2 marker) (THP1 cells) | wound M1 marker expression (TNF-α, IL1-β) [2] | wound M2 marker expression (Fizz1, Ym1) [2] | numbers of wound neutrophils [3]
1 | C[C@]12CC[C@@H]3c4ccc(O)cc4CC[C@H]3[C@@H]1CC[C@@H]2O [Formulation E2, 17β-estradiol, reference compound] | strong trend to faster wound closure | strong trend towards reduced expression of Tnf-α in M1 polarised cells | increased expression of CCL 17 in M2 polarised cells |  |  | 
2 | C[C@]12CC[C@@H]3c4ccc(O)cc4CC[C@H]3[C@@H]1[C@@H](O)[C@@H](O)[C@@H]2O [Formulation E4, 1,3,5 (10)-estratrien-3,15alpha, 16alpha, 17beta-tetrol] | strong trend to faster wound closure | strong trend towards reduced expression of Tnf-α in M1 polarised cells | increased expression of CCL 17 in M2 polarised cells | reduced M1 marker expression | increased M2 marker expression | reduced numbers of wound neutrophils
